From the NIST ThermoML archive (doi:10.1021/je1002237)
± gives the expanded uncertainty stated by the source.

Assay: xn = mol fraction of the nth substance listed
Details: 101 kPa, Liquid

CC1COC(=O)O1 (stereo not drawn) [4-methyl-1,3-dioxolan-2-one] + CCOS(=O)(=O)[O-].CCn1cc[n+](C)c1
mass density (278.15 K, x1 = 0.0266): 1250.69 ± 1.1 kg/m3 | mass density (278.15 K, x1 = 0.0513): 1250.41 ± 1.1 kg/m3 | mass density (278.15 K, x1 = 0.0755): 1250.13 ± 1.1 kg/m3 | mass density (278.15 K, x1 = 0.1231): 1249.6 ± 1.1 kg/m3 | mass density (278.15 K, x1 = 0.1825): 1248.89 ± 1 kg/m3 | mass density (278.15 K, x1 = 0.2548): 1248.05 ± 1 kg/m3 | mass density (278.15 K, x1 = 0.3178): 1247.17 ± 1 kg/m3 | mass density (278.15 K, x1 = 0.3778): 1246.4 ± 0.98 kg/m3 | mass density (278.15 K, x1 = 0.4859): 1244.38 ± 0.95 kg/m3 | mass density (278.15 K, x1 = 0.5725): 1242.6 ± 0.93 kg/m3 | mass density (278.15 K, x1 = 0.6971): 1239.08 ± 0.9 kg/m3 | mass density (278.15 K, x1 = 0.7812): 1235.9 ± 0.88 kg/m3 | mass density (278.15 K, x1 = 0.8427): 1232.95 ± 0.87 kg/m3 | mass density (278.15 K, x1 = 0.8893): 1230.36 ± 0.86 kg/m3 | mass density (278.15 K, x1 = 0.9259): 1227.81 ± 0.85 kg/m3 | mass density (278.15 K, x1 = 0.9554): 1225.35 ± 0.84 kg/m3 | mass density (278.15 K, x1 = 0.9797): 1223.22 ± 0.83 kg/m3 | mass density (278.15 K, x1 = 1): 1220.93 ± 0.83 kg/m3 | mass density (283.15 K, x1 = 0.0266): 1247.12 ± 1.1 kg/m3 | mass density (283.15 K, x1 = 0.0513): 1246.82 ± 1.1 kg/m3 | mass density (283.15 K, x1 = 0.0755): 1246.55 ± 1.1 kg/m3 | mass density (283.15 K, x1 = 0.1231): 1246.04 ± 1.1 kg/m3 | mass density (283.15 K, x1 = 0.1825): 1245.35 ± 1 kg/m3 | mass density (283.15 K, x1 = 0.2548): 1244.41 ± 1 kg/m3 | mass density (283.15 K, x1 = 0.3178): 1243.45 ± 0.99 kg/m3 | mass density (283.15 K, x1 = 0.3778): 1242.61 ± 0.98 kg/m3 | mass density (283.15 K, x1 = 0.4859): 1240.42 ± 0.95 kg/m3 | mass density (283.15 K, x1 = 0.5725): 1238.5 ± 0.92 kg/m3 | mass density (283.15 K, x1 = 0.6971): 1234.73 ± 0.89 kg/m3 | mass density (283.15 K, x1 = 0.7812): 1231.35 ± 0.87 kg/m3 | mass density (283.15 K, x1 = 0.8427): 1228.23 ± 0.86 kg/m3 | mass density (283.15 K, x1 = 0.8893): 1225.48 ± 0.85 kg/m3 | mass density (283.15 K, x1 = 0.9259): 1222.79 ± 0.84 kg/m3 | mass density (283.15 K, x1 = 0.9554): 1220.2 ± 0.83 kg/m3 | mass density (283.15 K, x1 = 0.9797): 1217.97 ± 0.82 kg/m3 | mass density (283.15 K, x1 = 1): 1215.57 ± 0.82 kg/m3 | mass density (288.15 K, x1 = 0.0266): 1243.68 ± 1.1 kg/m3 | mass density (288.15 K, x1 = 0.0513): 1243.39 ± 1.1 kg/m3 | mass density (288.15 K, x1 = 0.0755): 1243.1 ± 1.1 kg/m3 | mass density (288.15 K, x1 = 0.1231): 1242.54 ± 1.1 kg/m3 | mass density (288.15 K, x1 = 0.1825): 1241.79 ± 1 kg/m3 | mass density (288.15 K, x1 = 0.2548): 1240.76 ± 1 kg/m3 | mass density (288.15 K, x1 = 0.3178): 1239.73 ± 0.98 kg/m3 | mass density (288.15 K, x1 = 0.3778): 1238.81 ± 0.97 kg/m3 | mass density (288.15 K, x1 = 0.4859): 1236.47 ± 0.94 kg/m3 | mass density (288.15 K, x1 = 0.5725): 1234.4 ± 0.91 kg/m3 | mass density (288.15 K, x1 = 0.6971): 1230.4 ± 0.88 kg/m3 | mass density (288.15 K, x1 = 0.7812): 1226.82 ± 0.86 kg/m3 | mass density (288.15 K, x1 = 0.8427): 1223.51 ± 0.85 kg/m3 | mass density (288.15 K, x1 = 0.8893): 1220.62 ± 0.84 kg/m3 | mass density (288.15 K, x1 = 0.9259): 1217.79 ± 0.83 kg/m3 | mass density (288.15 K, x1 = 0.9554): 1215.07 ± 0.82 kg/m3 | mass density (288.15 K, x1 = 0.9797): 1212.73 ± 0.81 kg/m3 | mass density (288.15 K, x1 = 1): 1210.21 ± 0.81 kg/m3 | mass density (293.15 K, x1 = 0.0266): 1240.27 ± 1.1 kg/m3 | mass density (293.15 K, x1 = 0.0513): 1239.97 ± 1.1 kg/m3 | mass density (293.15 K, x1 = 0.0755): 1239.64 ± 1.1 kg/m3 | mass density (293.15 K, x1 = 0.1231): 1239.04 ± 1 kg/m3 | mass density (293.15 K, x1 = 0.1825): 1238.2 ± 1 kg/m3 | mass density (293.15 K, x1 = 0.2548): 1237.11 ± 1 kg/m3 | mass density (293.15 K, x1 = 0.3178): 1236.01 ± 0.98 kg/m3 | mass density (293.15 K, x1 = 0.3778): 1235.04 ± 0.96 kg/m3 | mass density (293.15 K, x1 = 0.4859): 1232.54 ± 0.93 kg/m3 | mass density (293.15 K, x1 = 0.5725): 1230.34 ± 0.91 kg/m3 | mass density (293.15 K, x1 = 0.6971): 1226.09 ± 0.88 kg/m3 | mass density (293.15 K, x1 = 0.7812): 1222.31 ± 0.85 kg/m3 | mass density (293.15 K, x1 = 0.8427): 1218.83 ± 0.84 kg/m3 | mass density (293.15 K, x1 = 0.8893): 1215.78 ± 0.83 kg/m3 | mass density (293.15 K, x1 = 0.9259): 1212.81 ± 0.82 kg/m3 | mass density (293.15 K, x1 = 0.9554): 1209.96 ± 0.81 kg/m3 | mass density (293.15 K, x1 = 0.9797): 1207.51 ± 0.8 kg/m3 | mass density (293.15 K, x1 = 1): 1204.88 ± 0.8 kg/m3 | mass density (298.15 K, x1 = 0.0266): 1236.86 ± 1.1 kg/m3 | mass density (298.15 K, x1 = 0.0513): 1236.53 ± 1.1 kg/m3 | mass density (298.15 K, x1 = 0.0755): 1236.19 ± 1.1 kg/m3 | mass density (298.15 K, x1 = 0.1231): 1235.55 ± 1 kg/m3 | mass density (298.15 K, x1 = 0.1825): 1234.68 ± 1 kg/m3 | mass density (298.15 K, x1 = 0.2548): 1233.49 ± 0.99 kg/m3 | mass density (298.15 K, x1 = 0.3178): 1232.32 ± 0.97 kg/m3 | mass density (298.15 K, x1 = 0.3778): 1231.27 ± 0.95 kg/m3 | mass density (298.15 K, x1 = 0.4859): 1228.62 ± 0.92 kg/m3 | mass density (298.15 K, x1 = 0.5725): 1226.28 ± 0.9 kg/m3 | mass density (298.15 K, x1 = 0.6971): 1221.79 ± 0.87 kg/m3 | mass density (298.15 K, x1 = 0.7812): 1217.81 ± 0.85 kg/m3 | mass density (298.15 K, x1 = 0.8427): 1214.15 ± 0.83 kg/m3 | mass density (298.15 K, x1 = 0.8893): 1210.95 ± 0.82 kg/m3 | mass density (298.15 K, x1 = 0.9259): 1207.84 ± 0.81 kg/m3 | mass density (298.15 K, x1 = 0.9554): 1204.85 ± 0.8 kg/m3 | mass density (298.15 K, x1 = 0.9797): 1202.3 ± 0.79 kg/m3 | mass density (298.15 K, x1 = 1): 1199.55 ± 0.78 kg/m3 | mass density (303.15 K, x1 = 0.0266): 1233.45 ± 1.1 kg/m3 | mass density (303.15 K, x1 = 0.0513): 1233.11 ± 1.1 kg/m3 | mass density (303.15 K, x1 = 0.0755): 1232.74 ± 1 kg/m3 | mass density (303.15 K, x1 = 0.1231): 1232.06 ± 1 kg/m3 | mass density (303.15 K, x1 = 0.1825): 1231.13 ± 1 kg/m3 | mass density (303.15 K, x1 = 0.2548): 1229.88 ± 0.98 kg/m3 | mass density (303.15 K, x1 = 0.3178): 1228.64 ± 0.96 kg/m3 | mass density (303.15 K, x1 = 0.3778): 1227.52 ± 0.94 kg/m3 | mass density (303.15 K, x1 = 0.4859): 1224.71 ± 0.91 kg/m3 | mass density (303.15 K, x1 = 0.5725): 1222.25 ± 0.89 kg/m3 | mass density (303.15 K, x1 = 0.6971): 1217.52 ± 0.86 kg/m3 | mass density (303.15 K, x1 = 0.7812): 1213.33 ± 0.84 kg/m3 | mass density (303.15 K, x1 = 0.8427): 1209.49 ± 0.82 kg/m3 | mass density (303.15 K, x1 = 0.8893): 1206.14 ± 0.81 kg/m3 | mass density (303.15 K, x1 = 0.9259): 1202.89 ± 0.8 kg/m3 | mass density (303.15 K, x1 = 0.9554): 1199.76 ± 0.79 kg/m3 | mass density (303.15 K, x1 = 0.9797): 1197.09 ± 0.78 kg/m3 | mass density (303.15 K, x1 = 1): 1194.23 ± 0.77 kg/m3 | mass density (308.15 K, x1 = 0.0266): 1230.06 ± 1.1 kg/m3 | mass density (308.15 K, x1 = 0.0513): 1229.69 ± 1 kg/m3 | mass density (308.15 K, x1 = 0.0755): 1229.3 ± 1 kg/m3 | mass density (308.15 K, x1 = 0.1231): 1228.58 ± 1 kg/m3 | mass density (308.15 K, x1 = 0.1825): 1227.6 ± 0.99 kg/m3 | mass density (308.15 K, x1 = 0.2548): 1226.27 ± 0.97 kg/m3 | mass density (308.15 K, x1 = 0.3178): 1224.96 ± 0.95 kg/m3 | mass density (308.15 K, x1 = 0.3778): 1223.78 ± 0.93 kg/m3 | mass density (308.15 K, x1 = 0.4859): 1220.83 ± 0.9 kg/m3 | mass density (308.15 K, x1 = 0.5725): 1218.22 ± 0.88 kg/m3 | mass density (308.15 K, x1 = 0.6971): 1213.25 ± 0.85 kg/m3 | mass density (308.15 K, x1 = 0.7812): 1208.86 ± 0.83 kg/m3 | mass density (308.15 K, x1 = 0.8427): 1204.84 ± 0.81 kg/m3 | mass density (308.15 K, x1 = 0.8893): 1201.34 ± 0.8 kg/m3 | mass density (308.15 K, x1 = 0.9259): 1197.94 ± 0.79 kg/m3 | mass density (308.15 K, x1 = 0.9554): 1194.68 ± 0.78 kg/m3 | mass density (308.15 K, x1 = 0.9797): 1191.9 ± 0.77 kg/m3 | mass density (308.15 K, x1 = 1): 1188.91 ± 0.76 kg/m3

CC#N [acetonitrile] + CCOS(=O)(=O)[O-].CCn1cc[n+](C)c1
mass density (278.15 K, x1 = 1): 798.01 ± 0.68 kg/m3 | mass density (283.15 K, x1 = 1): 792.69 ± 0.69 kg/m3 | mass density (288.15 K, x1 = 1): 787.33 ± 0.7 kg/m3 | mass density (293.15 K, x1 = 1): 781.97 ± 0.71 kg/m3 | mass density (298.15 K, x1 = 1): 776.56 ± 0.72 kg/m3 | mass density (303.15 K, x1 = 1): 771.14 ± 0.73 kg/m3 | mass density (308.15 K, x1 = 1): 765.68 ± 0.74 kg/m3
